Here are results for one molecule from patent publication US12251413B2, “Use of effective part extract of Monochasma savatieri in preparation of drug for treating inflammatory disease or tumor” (Harbin Kanglong Pharmaceutical Co., Ltd., priority 2022, dated 2025).

Each structure is given as a SMILES string.

A word on the inhibition: it is the relative decrease from the control value, in per cent.

The test relates to TNF-α. Description: Inhibition of TNF-α secretion by LPS-induced RAW264.7 macrophages (ELISA). Format: cell-based. The following applies: Mus musculus, RAW264.7, LPS 1 μg/mL, 24 h (Table 1), read-out: TNF-α inhibition rate (%). The text has this:
This test example simulated the inflammatory response at a cellular level in vitro, that is, the inflammatory response of mouse peritoneal macrophages (RAW264.7) was induced by lipopolysaccharide (LPS) to produce models of the inflammatory factors, and an inhibitory effect of the effective part extract of Monochasma savatieri on the TNF-α secreted by cells was detected by ELISA, to evaluate an anti-inflammatory effect thereof.
Test reagents were: RAW264.7 cells; a DMEM medium, a 1640 medium (Invitrogen), fetal bovine serum (Gibco); LPS(Sigma); an ELISA kit (ebioscience), and a CCK8 reagent (Taosu, Beijing).
Test samples were: the B2-13, B2-15, B2-16, and B2-16-15 prepared in Example 1; a positive drug: dexamethasone.
Test method: • 1. Cell culture: the RAW264.7 cells were cultured in the 1640+10% FBS at 37° C. with 5% CO2, and the cells were passaged when showing logarithmic growth. When reaching 80% confluency, the cells were plated in a 96-well plate (density: 2×10^4 cells/well) at 100 μL/well, and then incubated at 37° C. with 5% CO2 for 12 h to 18 h. • 2. […]
Evaluation index: an inhibition rate of the inflammatory factor TNF-α. OD values were read at 450 nm and 570 nm, a standard curve was plotted, a concentration of TNF-α in the medium was calculated, and the inhibition rate and inhibitory activity IC50 value of the samples on the TNF-α produced by the cells were calculated. […]

For the molecule `C[C@@H]1C[C@H]2[C@@H]3CCC4=CC(=O)C=C[C@]4(C)[C@@]3(F)[C@@H](O)C[C@]2(C)[C@@]1(O)C(=O)CO` [Dexamethasone, dexamethasone], the inhibition at 10 µM amounted to 58.7%.
